Patent US20240226125A1, “USE OF SOTAGLIFLOZIN FOR THE TREATMENT OF PATIENTS WITH TYPE 1 DIABETES MELLITUS” (priority 2019, published 2024)

Test system: adult patients with Type 1 Diabetes Mellitus who have inadequate glycemic control with insulin therapy
Test: inTandem 1 and inTandem 2 pooled double-blind placebo-controlled clinical studies, efficacy
Format: in vivo, human
Conditions: for 2-hour postprandial plasma glucose (mg/dL) LS Mean change (SE) / A1C (%) LS Mean change (SE) / Body weight (kg) LS Mean change (SE) / DDS2 (score) LS Mean change (SE) / DTSQ (score) LS Mean change (SE) / Fasting plasma glucose (mg/dL) LS Mean change (SE) / SBP (mmHg) LS Mean change (SE) / Time in range (%) LS Mean change (SE): 200 mg
[1] = 200 mg vs placebo, Baseline BMI <27 kg/m^2, Week 24
[2] = 200 mg vs placebo, Baseline BMI <27 kg/m^2, Week 52
[3] = 200 mg vs placebo, Baseline BMI ≥27 kg/m^2, Week 24
[4] = 200 mg vs placebo, Baseline BMI ≥27 kg/m^2, Week 52
[5] = Baseline BMI <27 kg/m^2, Week 24
[6] = Baseline BMI <27 kg/m^2, Week 52
[7] = Baseline BMI ≥27 kg/m^2, Week 24
[8] = Baseline BMI ≥27 kg/m^2, Week 52
[9] = 400 mg vs placebo, Baseline BMI <27 kg/m^2, Week 24
[10] = 400 mg vs placebo, Baseline BMI <27 kg/m^2, Week 52

## CCOc1ccc(Cc2cc([C@@H]3O[C@H](SC)[C@@H](O)[C@H](O)[C@H]3O)ccc2Cl)cc1 [sotagliflozin, (2S,3R,4R,5S,6R)-2-(4-chloro-3-(4-ethoxybenzyl)phenyl)-6-(methylthio)tetrahydro-2H-pyran-3,4,5-triol]
[1]
  2-hour postprandial plasma glucose (mg/dL) LS Mean Difference (SE): −66.0 (20.22) mg/dL
  A1C (%) LS Mean Difference (SE): −0.32 (0.062) %
  Body weight (kg) LS Mean Difference (SE): −2.06 (0.240) kg
  DDS2 (score) LS Mean Difference (SE): −0.4 (0.16) score
  DTSQ (score) LS Mean Difference (SE): 1.7 (0.42) score
  Fasting plasma glucose (mg/dL) LS Mean Difference (SE): −15.7 (5.69) mg/dL
  SBP (mmHg) LS Mean Difference (SE): −3.1 (0.97) mmHg
  Time in range (%) LS Mean Difference (SE): 1.638 (3.8450) %
[2]
  A1C (%) LS Mean Difference (SE): −0.20 (0.078) %
  Body weight (kg) LS Mean Difference (SE): −2.26 (0.317) kg
  SBP (mmHg) LS Mean Difference (SE): −4.1 (1.05) mmHg
[3]
  2-hour postprandial plasma glucose (mg/dL) LS Mean Difference (SE): −19.0 (14.71) mg/dL
  A1C (%) LS Mean Difference (SE): −0.39 (0.046) %
  Body weight (kg) LS Mean Difference (SE): −2.27 (0.272) kg
  DDS2 (score) LS Mean Difference (SE): −0.6 (0.13) score
  DTSQ (score) LS Mean Difference (SE): 2.6 (0.35) score
  Fasting plasma glucose (mg/dL) LS Mean Difference (SE): −15.7 (4.57) mg/dL
  SBP (mmHg) LS Mean Difference (SE): −1.3 (0.87) mmHg
  Time in range (%) LS Mean Difference (SE): 8.171 (2.9713) %
[4]
  A1C (%) LS Mean Difference (SE): −0.24 (0.056) %
  Body weight (kg) LS Mean Difference (SE): −3.01 (0.357) kg
  SBP (mmHg) LS Mean Difference (SE): −2.1 (0.90) mmHg
[5]
  2-hour postprandial plasma glucose (mg/dL) LS Mean change (SE): −49.5 (17.63) mg/dL
  A1C (%) LS Mean change (SE): −0.38 (0.047) %
  Body weight (kg) LS Mean change (SE): −1.43 (0.177) kg
  DDS2 (score) LS Mean change (SE): −0.2 (0.13) score
  DTSQ (score) LS Mean change (SE): 1.7 (0.33) score
  Fasting plasma glucose (mg/dL) LS Mean change (SE): −10.8 (4.22) mg/dL
  SBP (mmHg) LS Mean change (SE): −3.0 (0.74) mmHg
  Time in range (%) LS Mean change (SE): −0.532 (2.9540) %
[6]
  A1C (%) LS Mean change (SE): −0.19 (0.057) %
  Body weight (kg) LS Mean change (SE): −1.57 (0.230) kg
  SBP (mmHg) LS Mean change (SE): −1.4 (0.79) mmHg
[7]
  2-hour postprandial plasma glucose (mg/dL) LS Mean change (SE): −36.8 (11.72) mg/dL
  A1C (%) LS Mean change (SE): −0.43 (0.034) %
  Body weight (kg) LS Mean change (SE): −1.93 (0.196) kg
  DDS2 (score) LS Mean change (SE): −0.5 (0.10) score
  DTSQ (score) LS Mean change (SE): 2.3 (0.26) score
  Fasting plasma glucose (mg/dL) LS Mean change (SE): −9.3 (3.33) mg/dL
  SBP (mmHg) LS Mean change (SE): −2.9 (0.64) mmHg
  Time in range (%) LS Mean change (SE): 6.254 (2.1983) %
[8]
  A1C (%) LS Mean change (SE): −0.24 (0.041) %
  Body weight (kg) LS Mean change (SE): −2.16 (0.254) kg
  SBP (mmHg) LS Mean change (SE): −1.7 (0.66) mmHg
[9]
  2-hour postprandial plasma glucose (mg/dL) LS Mean Difference (SE): −86.1 (21.27) mg/dL
  A1C (%) LS Mean Difference (SE): −0.27 (0.063) %
  Body weight (kg) LS Mean Difference (SE): −2.55 (0.243) kg
  DDS2 (score) LS Mean Difference (SE): −0.5 (0.16) score
  DTSQ (score) LS Mean Difference (SE): 1.5 (0.43) score
  Fasting plasma glucose (mg/dL) LS Mean Difference (SE): −16.4 (5.78) mg/dL
  SBP (mmHg) LS Mean Difference (SE): −3.5 (0.98) mmHg
  Time in range (%) LS Mean Difference (SE): 6.335 (3.8492) %
[10]
  A1C (%) LS Mean Difference (SE): −0.21 (0.079) %
  Body weight (kg) LS Mean Difference (SE): −2.41 (0.324) kg
  SBP (mmHg) LS Mean Difference (SE): −3.7 (1.08) mmHg
